Measurements: US4990538A, “Use of toremifene and its metabolites for the reversal of multidrug resistance of cancer cells against cytotoxic drugs” (priority 1989, dated 1991)
Entries after “also recorded” stand apart in the source; their conditions may differ.

Columns and labels:
HOV-007 = experiment: Number of living cells (bioluminescence), ovarian cancer line HOV-007; details: doxorubicin 0 μg/ml, 3 days
Description: (§1) Two human ovarian cell lines were established in vitro from fresh serous ovarian cancer tissues. The lines are coded HOV-007 and HOV-018. The cells were cultivated in Eagle's MEM containing 1% unstripped foetal calf serum. The assays were carried out at 37° C. in 5% CO2 on 96 well plates.
presented. Number of cells was quantitated after 3 days'

CHO-Adr cells = experiment: MTT cell viability assay in doxorubicin resistant CHO-Adr cells
Description: (§4) Initial cell growth studies were carried out to investigate the effect of combination toremifene +doxorubicin in doxorubicin sensitive and resistant cells. Cell cultures were carried out using wild type CHO-K1 cells as well as CHO-Adr cells, the latter being selected by a series of step-wise selections of doxorubicin resistant clones in presence of 0.4 ug/ml of doxorubicin. […] The resistant cells were stable in cell culture in the absence of doxorubicin. Both cell lines were cultivated in Hams F10 medium supplemented with 5% newborn calf serum, 5% foetal calf serum, antibiotics and 3mM glutamine. The cells were maintained as monolayer cultures 37° C. under 5% CO2. Drug sensitivity in CHO-K1and CHO-Adr cells was assessed by a semi-automated colorimetric MTT assay. The assay is dependent on the cellular reduction of MTT (3-U4,5-dimethylthiazol-2-ylA-2,5-diphenyl tertazolium bromide, thiazolyl blue) by the mitochondrial dehydrogenase of viable cells to a blue formazan product which was measured spectrophotometrically. The cells were seeded on 96-well plates and allowed to settle for 12 hours at 37° C. in 5% CO2. Appropriate drug concentrations diluted in growth medium were added for 24 hours. Toremifene was dissolved in 95% ethanol stock solution, doxorubicin stock solution was prepared in water. […] The cells were incubated with the drugs for 24 hours, after which the cells were washed twice with phosphate buffered saline before being placed in 200 μl fresh medium for a further 48 hours. At the end of this incubation 0.1 mg MTT was added to each well and incubated for 4 hours. The medium was carefully aspirated and the crystals were solubilised in 100 μ l DMSO (dimethyl sulfoxide). Absorbances at 540 nm were read immediately on an ELISA Multiskan reader. The results were expressed as a percentage of absorbance of drug treated cells compared to controls.
(§5) The effect of AAG in the concentration of 0.1 to 2 mg/ml was assessed on the potentiation produced by toremifene.

Human melanoma UV-me-1 = experiment: Toremifene and doxorubicin in human melanoma UV-me-1; details: doxorubicin 0 μg/ml, 2 days, control 100
in vitro [1] = details: hamster, cho-k1 cells
Description: as §4, §5

HOV-018 = experiment: Number of living cells (bioluminescence), ovarian cancer line HOV-018; details: doxorubicin 0 μg/ml
Description: as §1

[2] = tested on: α1 -acid glycoprotein (AAG); details: cited from earlier work
in vitro [3] = details: hamster, cho-adr cells
Description: as §4, §5

MCF-7/DOX = experiment: Sensitization of MCF-7/DOX by patients' plasma ultrafiltrate; assay type: cell-based, human; details: FIG. 8
Description: Cells were growth in Corning 75-cm^2 tissue flasks and were maintained in exponential growth using RPMI 1640 medium supplemented with 5% fetal bovine serum in 5% CO2 and 95% air. […] The cells were cultivated in 100 ul volumes in 96-well microtiter plates. The principle of the method was to cultivate cells in the presence of the drugs/ drug combinations for 48 hours. After this time the living cells were stained with methylene blue and quantitated spectrophotometrically using microtiter plate reader (Titertek Model MCC/340) interfaced to an Apple IIe computer. Inhibition of the cell growth is expressed as a percentage of absorbance of vehicle treated control cultures. Human plasma samples were obtained from patients participating clinical phase I studies receiving 10, 20, 40, 60, 200 or 400 mg toremifene daily for eight weeks. Ultrafiltrate from the plasma was prepared by placing plasma specimens in Amicon CF-10 filters (MW cutoff 10 000) followed by centrifugation at 5000×g for 20 minutes. The ultrafiltrates were used in order to study if the concentrations achieved clinically were able to sensitize MCF-7/DOX. Part of the growth medium was replaced by plasma ultrafiltrate and the cells were allowed to grow for 4 days, at which time they were stained and quantitated as described above.

Ovarian ca. = details: subrenal capsule assay, all tumor types
Description: (§2) Pieces of fresh human tumors were implanted under the outer capsule of mouse kidney. Mice were treated with different combinations of cytotoxic drugs (doses preselected according to toxicity of each combination), with or without toremifene (150 mg/kg p.o.). Control animals received saline injections. The drugs were given on five consecutive days after the inoculation of the tumors. The sizes of the tumor pieces were measured by stereo microscope equipped with ocular micrometer immediately after inoculation (initial size) and on the sixth day when the animals were killed (final size). The difference final size - initial size describes the growth or regression of the tumor. The measuring unit was ocular micrometer unit (omu). 10 omu is identical to 1.0 mm. In addition to the tumor size, the weight gain of the animals was measured. The weight gain describes the toxicity of the treatment. In general, the ratio final weight/ pretest weight should be more than 0.80. Otherwise the toxicity is considered unacceptable.

[4] = mouse, in vivo
Description: as §2

CHO-K1 cells [5] = experiment: Doxorubicin transport (accumulation) in CHO-K1 cells; assay type: cell-based; details: 2 μM toremifene; 1 μM doxorubicin; wild-type CHO-K1
CHO-K1 cells [6] = experiment: MTT cell viability assay in wild-type CHO-K1 cells
Description: as §4, §5

B-16 melanoma = experiment: Schedule dependency of antitumor effect in B-16 melanoma; details: toremifene 150 mg/kg p.o. days 1-5
Description: (§3) Lewis Lung (LL) or melanoma B-16 tumor cells, 2×10^6 cells/animal, were inoculated intramuscularly to female C-57 mice. Tumors were allowed to grow to the mean diameter of 1.5 cm after which toremifene/doxorubicin treatments were started as indicated in the next tables. Tumor size was measured before treatment and after 10 days in 2 dimensions and the mean was considered as tumor diameter. Weight of the animals was also recorded.

Lewis Lung (LL) tumor = experiment: Schedule dependency of antitumor effect in Lewis Lung tumor; details: toremifene 150 mg/kg p.o. days 1-5
Description: as §3

MCF-7/DOX cells = experiment: Inhibition of cell growth / reversal of MDR in MCF-7/DOX cells (methylene blue); assay type: cell-based, human; details: for Inhibition of cell growth, Actual: 2880 min
Description: The cells were cultivated in 100 ul volumes in 96-well microtiter plates. The principle of the method was to cultivate cells in the presence of the drugs/ drug combinations for 48 hours. After this time the living cells were stained with methylene blue and quantitated spectrophotometrically using microtiter plate reader (Titertek Model MCC/340) interfaced to an Apple IIe computer. Inhibition of the cell growth is expressed as a percentage of absorbance of vehicle treated control cultures.

[7] = cited from earlier work
[8] = drug 3.0 μg/ml +1 μM doxorubicin

SMILES: CN(C)CCOc1ccc(/C(=C(/CCCl)c2ccccc2)c2ccccc2)cc1 [toremifene]
- Number of living cells (HOV-007; toremifene 1.0 μM): 95% of control values
- Number of living cells (HOV-007; toremifene 3.0 μM): 71% of control values
- Number of living cells (HOV-007; toremifene 10.0 μM): 66% of control values
- Potentiation of doxorubicin toxicity (CHO-Adr cells; CHO-Adr): the degree of potentiation was greater
- Relative potentiation of doxorubicin toxicity, resistant vs wild-type (CHO-Adr cells; CHO-Adr vs CHO-K1, increasing concentrations of toremifene): far greater in the CHO-Adr cell line than in the parent cell line; also recorded: greater for the resistant than the wild-type cells
- Effect of AAG on toremifene toxicity (CHO-Adr cells; CHO-Adr, AAG 2 mg/ml): protected both cell lines from toremifene toxicity
- Effect of toremifene on doxorubicin toxicity at highest AAG level (CHO-Adr cells; CHO-Adr, AAG 2 mg/ml): cell viability was no different from that when doxorubicin alone was present; also recorded: no longer any effect of toremifene on doxorubicin toxicity
- AAG concentration above which potentiation by toremifene is gradually reversed (CHO-Adr cells; CHO-Adr, doxorubicin + 10 μM toremifene): above 0.5 mg/ml
- Increase of sensitivity to doxorubicin (CHO-Adr cells; CHO-K1 and CHO-Adr, toremifene concentrations not inhibiting cell growth on their own): can be increased by toremifene concentrations which do not inhibit cell growth on their own
- Toremifene and doxorubicin in UV-me-1 (living cells) (Human melanoma UV-me-1; toremifene 0.5 μM): 97
- Toremifene and doxorubicin in UV-me-1 (living cells) (Human melanoma UV-me-1; toremifene 5.0 μM): 32
- MCC at 24 h (in vitro [1]): > 10 µM
- Number of living cells (HOV-018; toremifene 1.0 μM, 4320 min): 104% of control values
- Number of living cells (HOV-018; toremifene 3.0 μM): 99% of control values
- Number of living cells (HOV-018; toremifene 10.0 μM, 4320 min): 97% of control values
- Binding to α1-acid glycoprotein [2]: bound in some extent
- MCC at 24 h (in vitro [3]): > 10 µM
- MDR reversing effect in patients' sera (MCF-7/DOX): A clear concentration-dependency
- Sensitivity to cytotoxic drugs in human tumors (Ovarian ca.): can increase the sensitivity to cytotoxic drugs in human tumors
- Effect of toremifene addition on weight gain [4]: not influenced by toremifene addition
- Drug accumulation of doxorubicin (CHO-K1 cells [5]): enhanced drug accumulation
- Effect of AAG on toremifene toxicity (CHO-K1 cells [6]; AAG 2 mg/ml): protected both cell lines from toremifene toxicity
- Effect of toremifene on doxorubicin toxicity at highest AAG level (CHO-K1 cells [6]; AAG 2 mg/ml): cell viability was no different from that when doxorubicin alone was present; also recorded: no longer any effect of toremifene on doxorubicin toxicity
- AAG concentration above which potentiation by toremifene is gradually reversed (CHO-K1 cells [6]; doxorubicin + 10 μM toremifene): above 0.5 mg/ml
- Potentiation of doxorubicin toxicity (CHO-K1 cells [6]; toremifene 1 to 10 μM): incremental potentiation of doxorubicin toxicity
- Change of tumor size (B-16 melanoma): +3.2 mm
- Change of tumor diameter (Lewis Lung (LL) tumor): +5.4 mm
- Effectiveness in reversing MDR (MCF-7/DOX cells; MCF-7/DOX cells, Table 5 and FIG. 7): almost equally effective
- Inhibition of cell growth, Actual (MCF-7/DOX cells; [8]): 38 % control
- Potential (potentiation of doxorubicin activity) (MCF-7/DOX cells; [8]): 58 % control
- Inhibition of cell growth, Actual (MCF-7/DOX cells; drug […] +1 μM doxorubicin): 31 % control
- Potential (potentiation of doxorubicin activity) (MCF-7/DOX cells; drug […] +1 μM doxorubicin): 48 % control
- Safety / toxicity in clinical use ([7]; at dose levels or concentrations required for MDR reversal): very safe drug
- maximal tolerated dose ([7]; clinical phase I trials): 400 to 600 mg daily
